In paper PMC3038857, “Using Nuclear Receptor Activity to Stratify Hepatocarcinogens” (PLoS ONE, 2011):

What was measured:
Type in all cases: cell-based
[1] = molecular target: T1, PPARa (PPARA) (Homo sapiens, UniProt Q07869); assay: NCGC_PPARa_Agonist: GAL4 BLAM Reporter gene assay: PPARa; parameters: expressed in transfected cells; host or cells: HEK293; details: agonist mode
T1 sequence (Q07869 1-468): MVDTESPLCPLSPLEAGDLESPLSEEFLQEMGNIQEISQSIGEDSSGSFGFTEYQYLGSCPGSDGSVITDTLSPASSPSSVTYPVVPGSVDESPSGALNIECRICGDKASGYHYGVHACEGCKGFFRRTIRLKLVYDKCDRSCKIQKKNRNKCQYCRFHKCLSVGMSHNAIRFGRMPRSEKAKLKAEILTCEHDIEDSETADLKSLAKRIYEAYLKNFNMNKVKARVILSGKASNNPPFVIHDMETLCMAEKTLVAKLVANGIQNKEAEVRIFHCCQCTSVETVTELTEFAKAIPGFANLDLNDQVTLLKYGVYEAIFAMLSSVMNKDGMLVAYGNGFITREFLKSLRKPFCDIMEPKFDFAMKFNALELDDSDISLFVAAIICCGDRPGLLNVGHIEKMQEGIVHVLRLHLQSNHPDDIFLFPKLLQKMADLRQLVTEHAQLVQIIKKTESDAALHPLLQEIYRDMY
Procedure: (§1) These assays measure binding constants and enzyme inhibition values for nuclear receptors. The targets include [drawing 67] , [drawing 68] , [drawing 69] , [drawing 70] , [drawing 71] , [drawing 72] , [drawing 73] , [drawing 74] , [drawing 75] and [drawing 76] . Each of the nuclear receptor targets was measured in agonist mode. Assays were run at the NIH Chemical Genomics Center (Rockville, MD).
(§2) Cell-based HTS Assays: These assays measuring binding constants and enzyme inhibition values for nuclear receptors. The targets include AR, ER, FXR, LXR, PPARα, PPARδ, PPARγ, RXRα, RXRβ and PXR. Each of the nuclear receptor targets was measured in both agonist and antagonist mode, but the antagonist data is still undergoing analysis due to possible interference between cytotoxicity and assay activity, so antagonist mode data were not used in the present analysis. Assays were run at the NIH Chemical Genomics Center (Rockville, MD) as part of the Tox21 collaboration. […] The R^2 was required to be ≥0.5. Values where only the highest concentration exceeded 50% activity were excluded to eliminate weak or false positives. Detailed description of the methods, data and analysis methods for this dataset will be presented in a separate publication.

[2] = molecular target: T2, PPARg (PPARG) (Homo sapiens, UniProt P37231); assay: NCGC_PPARg_Agonist: GAL4 BLAM Reporter gene assay: PPARg; parameters: expressed in transfected cells; host or cells: HEK293; details: agonist mode; scale not given, looks like -log10 of molar active concentration; 0 = no activity
T2 sequence (P37231 1-505): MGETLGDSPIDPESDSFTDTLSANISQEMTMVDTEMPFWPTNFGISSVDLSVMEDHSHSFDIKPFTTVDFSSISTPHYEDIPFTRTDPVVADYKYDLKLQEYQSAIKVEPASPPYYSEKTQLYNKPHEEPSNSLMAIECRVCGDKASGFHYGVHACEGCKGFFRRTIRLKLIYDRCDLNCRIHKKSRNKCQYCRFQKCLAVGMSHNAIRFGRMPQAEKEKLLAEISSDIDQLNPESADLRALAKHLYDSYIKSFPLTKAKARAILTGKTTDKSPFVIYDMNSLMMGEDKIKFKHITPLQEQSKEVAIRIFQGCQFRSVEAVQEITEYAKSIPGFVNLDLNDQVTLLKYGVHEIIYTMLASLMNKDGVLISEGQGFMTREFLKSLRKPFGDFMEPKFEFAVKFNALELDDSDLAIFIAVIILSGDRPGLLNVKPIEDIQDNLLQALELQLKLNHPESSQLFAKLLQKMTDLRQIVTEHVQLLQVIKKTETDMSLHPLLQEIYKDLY
Procedure: as §1, §2

[3] = system: CYP3A4; assay: CLZD_CYP3A4: Change in expression of CYP3A4 (primary human hepatocytes); details: 24 hr
Outline: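 Primary human hepatocyte cultures were exposed to test chemicals at 5 concentrations (0.004-40 µM) for 6, 24 or 48 hr.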

[4] = molecular target: T3, PPARG (peroxisome proliferator-activated receptor gamma) (Homo sapiens, UniProt P37231); assay: ATG_PPARg_TRANS: Factorial reporter gene assay (HepG2)
T3 construct: expressed in transfected cells; host or cells: HepG2
T3 sequence (P37231 1-505): T2 sequence (P37231 1-505)
Outline: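 Seven concentrations per chemical, three-fold dilutions down from the MTC, were tested in HepG2 hepatoma cells. Those cells carried a multiple reporter transcription unit library, read either as cis transcription-factor-site reporters or as a trans mammalian one-hybrid panel for nuclear receptors.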

[5] = scale not given, looks like -log10 of molar active concentration, 0 = no activity
[6] = HepG2, scale not given, looks like -log10 of molar active concentration, 0 = no activity

Row | Compound | NCGC_PPARa_Agonist [1, 5] | NCGC_PPARg_Agonist [2] | CLZD_CYP3A4_24 [3, 5] | ATG_PPARg_TRANS [4, 6] | CLZD_CYP3A4_24 [3] | ATG_PPARg_TRANS ([4]; HepG2) | NCGC_PPARa_Agonist [1] | ATG_PPARg_TRANS ([4]; HepG2 reporter)
1 | COC(=O)c1ccccc1CS(=O)(=O)NC(=O)Nc1nc(OC)cc(OC)n1 [r33] | 0 | 0 | 0 | 0 | – | – | – | –
2 | CC(C)N1C(=O)c2ccccc2NS1(=O)=O [r37] | 0 | 0 | 0 | 0 | – | – | – | –
3 | COc1ccc(-c2ccccc2)cc1NNC(=O)OC(C)C [r38] | 0 | 0 | 0 | 4.301 | – | – | – | –
4 | Cc1c(COC(=O)C2C(/C=C(\Cl)C(F)(F)F)C2(C)C)cccc1-c1ccccc1 (stereo not drawn) [r39] | 0 | 0 | 4.923 | 0 | – | – | – | –
5 | CC(C)(c1ccc(O)cc1)c1ccc(O)cc1 [r40] | 0 | 0 | 0 | 4.569 | – | – | – | –
6 | OB(O)O [r41] | 0 | 0 | – | 0 | – | – | – | –
7 | O=C(Nc1ccccc1-c1ccc(Cl)cc1)c1cccnc1Cl [r42] | 0 | 0 | 4.98 | 4.62 | – | – | – | –
8 | CCC(C)n1c(=O)[nH]c(C)c(Br)c1=O (stereo not drawn) [r43] | 0 | 0 | 5.055 | 0 | – | – | – | –
9 | N#Cc1cc(Br)c(O)c(Br)c1 [r44] | 4.173 | 0 | 0 | 4.398 | – | – | – | –
10 | CC(C)N1C(=O)N(c2ccccc2)CS/C1=N\C(C)(C)C [r45] | 0 | 0 | 4.966 | 0 | – | – | – | –
11 | CCCCOCN(C(=O)CCl)c1c(CC)cccc1CC [r46] | 0 | 0 | 0 | 5.678 | – | – | – | –
12 | C=CCOC(=O)C(C)(C)OC(=O)c1cc(-n2c(=O)cc(C(F)(F)F)n(C)c2=O)ccc1Cl [r47] | 0 | 0 | – | 0 | – | – | – | –
13 | CCC(C)Nc1c([N+](=O)[O-])cc(C(C)(C)C)cc1[N+](=O)[O-] (stereo not drawn) [r48] | 0 | 0 | 5.288 | 4.523 | – | – | – | –
14 | CCSC(=O)N(CC(C)C)CC(C)C [r49] | 0 | 0 | 0 | 0 | – | – | – | –
15 | O=C1C2CC=CCC2C(=O)N1SC(Cl)(Cl)Cl (stereo not drawn) [r51] | 0 | 0 | 0 | 0 | – | – | – | –
16 | CNC(=O)Oc1cccc2ccccc12 [r52] | 0 | – | – | – | – | – | – | –
17 | CC1=C(C(=O)Nc2ccccc2)SCCO1 [r53] | 0 | 0 | 5.078 | 4.119 | – | – | – | –
18 | CCOC(=O)C(Cl)Cc1cc(-n2nc(C)n(C(F)F)c2=O)c(F)cc1Cl (stereo not drawn) [r54] | 0 | 0 | 4.919 | 4.319 | – | – | – | –

Row | Compound | NCGC_PPARa_Agonist [1, 5] | NCGC_PPARg_Agonist [2] | CLZD_CYP3A4_24 [3, 5] | ATG_PPARg_TRANS [4, 6] | CLZD_CYP3A4_24 [3] | ATG_PPARg_TRANS ([4]; HepG2) | NCGC_PPARa_Agonist [1] | ATG_PPARg_TRANS ([4]; HepG2 reporter)
19 | Nc1cnn(-c2ccccc2)c(=O)c1Cl [r56] | 0 | 0 | 0 | 4.409 | – | – | – | –
20 | COc1cc(Cl)c(OC)cc1Cl [r57] | 0 | 0 | 0 | 0 | – | – | – | –
21 | N#Cc1c(Cl)c(Cl)c(Cl)c(C#N)c1Cl [r58] | 0 | 0 | 0 | 0 | – | – | – | –
22 | CC(C)OC(=O)Nc1cccc(Cl)c1 [r59] | 0 | 0 | 4.864 | 4.301 | – | – | – | –
23 | COc1nc(C)nc(NC(=O)NS(=O)(=O)c2ccccc2Cl)n1 [r62] | 0 | 0 | 0 | 0 | – | – | – | –
24 | COc1nc(C)nc(NC(=O)NS(=O)(=O)c2ccccc2Cl)n1 [r63] | 0 | 0 | 0 | 0 | – | – | – | –
25 | Cc1ccccc1CO[C@@H]1C[C@@]2(C(C)C)CC[C@]1(C)O2 [r64] | 0 | 0 | 5.116 | 4.377 | – | – | – | –
26 | C#CCC1=C(C)[C@H](OC(=O)[C@H]2[C@H](C=C(C)C)C2(C)C)CC1=O [r249] | – | – | – | – | 5.185 | 4.357 | – | –
27 | CCCN(CCC)c1c([N+](=O)[O-])cc(C(F)(F)F)c(N)c1[N+](=O)[O-] [r252] | – | – | – | – | 5.248 | – | 4.688 | –
28 | CSc1nc(NC(C)C)nc(NC(C)C)n1 [r256] | – | – | – | – | 5.143 | 4.284 | – | –
29 | CCCC1COC(Cn2cncn2)(c2ccc(Cl)cc2Cl)O1 (stereo not drawn) [r262] | – | – | – | – | 6.273 | – | – | –
30 | CC(C)=CC1C(C(=O)OCc2coc(Cc3ccccc3)c2)C1(C)C (stereo not drawn) [r280] | – | – | – | – | – | – | – | 4.495
31 | CCc1ccc(C(=O)NN(C(=O)c2cc(C)cc(C)c2)C(C)(C)C)cc1 [r290] | – | – | – | – | 5.287 | – | – | 5.201
32 | CCc1nn(C)c(C(=O)NCc2ccc(C(C)(C)C)cc2)c1Cl [r291] | – | – | – | – | 5.218 | – | – | 5.31
33 | COc1cccc(C(=O)NN(C(=O)c2cc(C)cc(C)c2)C(C)(C)C)c1C [row 202] | – | – | – | – | 5.142 | – | – | –
34 | CCc1cccc(C)c1N(C(=O)CCl)C(C)COC (stereo not drawn) [row 208] | – | – | – | – | 4.911 | 4.854 | – | –
35 | CCN(CC)C(=O)C(C)Oc1cccc2ccccc12 (stereo not drawn) [row 219] | – | – | – | – | 4.548 | 4.301 | – | –
36 | CC(C)Oc1cc(-n2nc(C(C)(C)C)oc2=O)c(Cl)cc1Cl [row 225] | – | – | – | – | 6.246 | 4.31 | – | –
